# Measurements as given in article PMC6222329 (Molecules : A Journal of Synthetic Chemistry and Natural …, 2018).
# Read-outs that look alike come from different tables or passages of the source.
# Columns and labels:
# BChE (Human) = target: T1, BChE (Human) (Homo sapiens, UniProt P06276); test: BChE inhibition, Ellman's method; type: biochemical
# T1 construct: purchased Sigma-Aldrich (Steinheim, Germany)
# Description: (§1) The assay was performed in two steps.
# (§2) All enzymes were obtained from Sigma-Aldrich (Steinheim, Germany). Ellman’s reagent and the substrates were obtained from Fluka (Buchs, Switzerland). The chemicals used to prepare the buffer solution were purchased from Merck (Darmstadt, Germany).
# (§3) The enzyme inhibitory activities of the synthesized compounds were investigated by applying Ellman’s method. Enzyme solutions were dissolved in gelatin solution (1%; 2.5 units/mL). […] Then, the reaction was initiated by the addition of Ellman’s reagent 5,5′-Dithiobis(2-nitrobenzoic acid) (DTNB; 20 µL/well, 10 mM) and the substrate (10 µL/well, 75 mM). […] The enzyme solution was processed as a control. All readings were adjusted with blank-reading. All assays were performed in four independent wells. […] Absorbance differences between the two readings were taken, and percentage inhibition rates were calculated according to the following formula: % Inhibition=[(A(C)−A(B))−(A(I)−A(B))]/(A(C)−A(B))×100.
# (§4) • Blank (B): the well in which the inhibitor compound and substrate were not added; • Control (C): the well where the inhibitor compound was not added; • A(B): the difference in absorbance reading for the blank; • A(C): the difference in absorbance reading for the control; • A(I): the difference in absorbance reading for the inhibitor compounds.
# AChE (Human) = target: T2, AChE (Human) (Homo sapiens, UniProt P22303); test: AChE inhibition, Ellman's method; type: biochemical
# T2 construct: purchased Sigma-Aldrich (Steinheim, Germany)
# Description: as §1, §2, §3, §4
# [1] = target: T3, AChE (Electrophorus electricus) (Electrophorus electricus, UniProt O42275); test: AChE inhibition, Ellman's method; type: biochemical
# T3 construct: purchased Sigma-Aldrich (Steinheim, Germany)
# Description: as §1, §2, §3, §4
# [2] = tested on: murine fibroblast healthy cell line (NIH3T3); test: MTT cell viability assay; type: cell-based; details: 24 h, 0.000316 µM to 1000 µM, read-out: IC50 against NIH3T3
# Description: (§5) The active compounds (4a, 4b, 4e, 4i, 4m, 4n, 4o, and 4t) were chosen to determine their cytotoxic activity toward a murine fibroblast healthy cell line (NIH3T3). After incubating the cells with active compounds at concentrations of 0.000316 µM to1000 µM for 24 h, the cell viability was measured using the 3-(4,5-dimethylthiazol-2-yl)-2,5-diphenyltetrazolium (MTT) assay. The inhibition percentage was calculated for each concentration of the test compounds. The IC50 values of the compounds were determined using a non-linear regression analysis over the calculated percentage inhibition values, and they are presented in Table 2. Accordingly, the cytotoxicity test proposed that the active derivatives were nontoxic against NIH3T3 cells at their active concentrations against BChE.
# (§6) Healthy murine embryonic fibroblast cells (NIH3T3 cell line) were used for the cytotoxicity tests. The cell line and selected compounds were prepared for an MTT assay as reported previously. The optical densities (OD) of 96 well plates were recorded at 540 nm. […]
# BChE (Equine) = target: T4, BChE (Equine) (Equus caballus, UniProt P81908); test: biochemical; type: biochemical
# T4 construct: purchased Sigma-Aldrich (Steinheim, Germany)
# Description: as §1, §2, §3, §4
# [3] = target: T5, human butyrylcholinesterase (BChE) (Homo sapiens, UniProt P06276); test: Enzyme kinetics of BChE inhibition (Lineweaver-Burk plots); type: biochemical
# T5 construct: purchased Sigma-Aldrich (Steinheim, Germany)
# Description: To recognize the inhibition type, enzyme kinetics studies were applied using Lineweaver–Burk plots. […]. […] This pattern also indicates a mixed-type inhibition.
# The calculation of the inhibition constant (Ki) is an effective tool for measuring the affinity of an enzyme for […], and it is easily determined using the secondary plots of the Lineweaver–Burk equation. […].
# In the kinetics studies, the assay protocol specified for the inhibition assay was identical. […]. Measurements were performed one of two ways, in the presence and in the absence of the inhibitor. […]. After addition of BChE (20 μL/well), the mixture was incubated under the same conditions as the activity assay. Then, the reaction was initiated by the addition of Ellman’s reagent (DTNB; 20 µL/well, 10 mM) and the substrate (10 µL/well, 75 mM). The absorbance was measured for 10 min at 412 nm. The enzyme solution was processed as a control. All readings were adjusted with blank-reading. The results were analyzed as Lineweaver–Burk plots using Microsoft Office Excel 2013 [15].
# MTT cell viability assay = type: cell-based, murine; details: mouse, NIH3T3 murine embryonic fibroblast cells, 0.000316 µM to 1000 µM, read-out: IC50 against NIH3T3
# Description: as §5, §6
# [4] = read-out: BChE (Human) inhibitory activity (%) ± SD
# [5] = read-out: AChE (Human) inhibitory activity (%) ± SD
# [6] = read-out: AChE (Electrophorus electricus) inhibitory activity (%) ± SD
# T3 sequence (O42275 24-633): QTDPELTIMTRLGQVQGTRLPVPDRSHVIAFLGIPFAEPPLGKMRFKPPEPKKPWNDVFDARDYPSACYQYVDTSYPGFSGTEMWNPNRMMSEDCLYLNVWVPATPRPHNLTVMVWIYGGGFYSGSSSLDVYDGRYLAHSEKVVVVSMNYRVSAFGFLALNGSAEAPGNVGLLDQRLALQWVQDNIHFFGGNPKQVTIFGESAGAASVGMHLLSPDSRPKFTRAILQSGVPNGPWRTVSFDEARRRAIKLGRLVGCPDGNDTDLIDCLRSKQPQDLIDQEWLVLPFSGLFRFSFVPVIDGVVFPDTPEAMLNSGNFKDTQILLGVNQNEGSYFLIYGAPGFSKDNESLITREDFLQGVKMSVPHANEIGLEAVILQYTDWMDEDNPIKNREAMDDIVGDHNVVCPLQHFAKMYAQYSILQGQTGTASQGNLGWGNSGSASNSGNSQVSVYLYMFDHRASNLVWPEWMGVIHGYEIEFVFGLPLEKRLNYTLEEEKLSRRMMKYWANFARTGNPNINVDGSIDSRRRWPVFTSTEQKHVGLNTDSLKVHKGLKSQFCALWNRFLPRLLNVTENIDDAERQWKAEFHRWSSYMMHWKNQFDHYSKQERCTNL
# T2 sequence (P22303 32-614): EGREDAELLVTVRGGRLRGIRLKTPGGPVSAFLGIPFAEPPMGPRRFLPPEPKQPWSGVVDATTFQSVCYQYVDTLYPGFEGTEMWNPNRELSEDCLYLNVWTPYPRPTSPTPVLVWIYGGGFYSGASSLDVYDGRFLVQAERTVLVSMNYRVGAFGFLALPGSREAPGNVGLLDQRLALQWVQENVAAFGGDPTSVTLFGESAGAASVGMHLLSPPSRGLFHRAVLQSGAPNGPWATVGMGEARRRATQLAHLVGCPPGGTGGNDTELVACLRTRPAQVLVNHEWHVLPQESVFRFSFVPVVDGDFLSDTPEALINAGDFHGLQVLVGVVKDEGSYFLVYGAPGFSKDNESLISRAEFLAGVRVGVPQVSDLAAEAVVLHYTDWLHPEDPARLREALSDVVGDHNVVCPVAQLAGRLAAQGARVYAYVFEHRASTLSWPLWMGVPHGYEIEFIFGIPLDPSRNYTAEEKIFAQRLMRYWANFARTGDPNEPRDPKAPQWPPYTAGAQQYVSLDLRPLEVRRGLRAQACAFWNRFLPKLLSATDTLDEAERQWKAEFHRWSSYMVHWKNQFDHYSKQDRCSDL
# T1 sequence (P06276 29-602): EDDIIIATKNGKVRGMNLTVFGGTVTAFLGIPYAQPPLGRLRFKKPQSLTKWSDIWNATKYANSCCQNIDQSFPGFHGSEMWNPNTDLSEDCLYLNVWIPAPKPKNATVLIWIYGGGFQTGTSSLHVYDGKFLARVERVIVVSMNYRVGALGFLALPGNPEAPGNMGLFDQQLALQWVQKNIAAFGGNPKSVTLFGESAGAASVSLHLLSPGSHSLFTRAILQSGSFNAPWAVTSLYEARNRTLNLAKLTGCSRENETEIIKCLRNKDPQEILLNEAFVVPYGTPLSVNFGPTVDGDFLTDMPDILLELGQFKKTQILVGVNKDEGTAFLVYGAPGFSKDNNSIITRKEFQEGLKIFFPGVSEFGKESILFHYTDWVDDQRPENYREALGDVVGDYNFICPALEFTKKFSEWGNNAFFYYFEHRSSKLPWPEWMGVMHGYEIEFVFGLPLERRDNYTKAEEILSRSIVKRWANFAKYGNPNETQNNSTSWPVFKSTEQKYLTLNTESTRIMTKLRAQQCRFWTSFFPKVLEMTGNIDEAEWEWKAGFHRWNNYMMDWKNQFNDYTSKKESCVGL
# T4 sequence (P81908 whole entry): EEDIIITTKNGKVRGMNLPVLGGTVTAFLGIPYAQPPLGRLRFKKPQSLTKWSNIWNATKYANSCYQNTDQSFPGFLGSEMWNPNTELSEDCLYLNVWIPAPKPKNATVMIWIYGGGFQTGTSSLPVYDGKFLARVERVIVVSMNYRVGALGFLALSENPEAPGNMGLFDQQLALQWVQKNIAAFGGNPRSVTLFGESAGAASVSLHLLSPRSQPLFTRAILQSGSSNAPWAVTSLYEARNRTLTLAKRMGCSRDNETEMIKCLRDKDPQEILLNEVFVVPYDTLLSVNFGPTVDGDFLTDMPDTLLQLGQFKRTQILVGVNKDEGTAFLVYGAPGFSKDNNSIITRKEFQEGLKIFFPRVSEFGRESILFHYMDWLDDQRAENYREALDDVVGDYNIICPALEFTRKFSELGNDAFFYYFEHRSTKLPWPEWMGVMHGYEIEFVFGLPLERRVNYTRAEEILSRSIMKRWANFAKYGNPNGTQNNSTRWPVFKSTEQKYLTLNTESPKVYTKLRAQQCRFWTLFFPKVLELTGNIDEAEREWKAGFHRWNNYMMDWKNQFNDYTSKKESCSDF
# T5 sequence (P06276 29-602): as the sequence (P06276 29-602) above
compound,measurement,setting,value
"O=C(CSC(=S)N1CCN(C(c2ccccc2)c2ccccc2)CC1)Nc1c2ccccc2nc2ccccc12 [Compound 4m, 2-(9-Acridinylamino)-2-oxoethyl 4-benzhydrylpiperazine-1-carbodithioate]",BChE (Human) inhibitory activity (%) ± SD,BChE (Human); 10^-3 M,98.18±2.71%
same,BChE (Human) inhibitory activity (%) ± SD,BChE (Human); 10^-4 M,* 97.50 ± 2.06%
same,BChE (Human) inhibitory activity (%) ± SD,BChE (Human); 10^-5 M,92.54±2.45%
same,BChE (Human) inhibitory activity (%) ± SD,BChE (Human); 10^-6 M,81.25±2.08%
same,BChE (Human) inhibitory activity (%) ± SD,BChE (Human); 10^-7 M,44.61±0.79%
same,BChE (Human) inhibitory activity (%) ± SD,BChE (Human); 10^-8 M,29.11±0.63%
same,BChE (Human) inhibitory activity (%) ± SD,BChE (Human); 10^-9 M,17.00±0.33%
same,fold better BChE inhibition in comparison with donepezil,BChE (Human); ratio of IC50 values,15.4 fold
same,IC50,BChE (Human); read-out: BChE (Human) IC50,0.093 ± 0.002 µM
same,AChE (Human) inhibitory activity (%) ± SD,AChE (Human); 10^-3 M,75.18±1.21%
same,AChE (Human) inhibitory activity (%) ± SD,AChE (Human); 10^-4 M,27.38 ± 1.10%
same,AChE (Electrophorus electricus) inhibitory activity (%) ± SD,[1]; 10^-3 M,71.23±2.15%
same,AChE (Electrophorus electricus) inhibitory activity (%) ± SD,[1]; 10^-4 M,25.43 ± 1.21%
same,IC50,[2],214 µM
same,IC50,BChE (Equine),0.092 ± 0.001 µM
same,BChE (Equine) inhibitory activity (%) ± SD,BChE (Equine); 10^-3 M,99.65±3.86%
same,BChE (Equine) inhibitory activity (%) ± SD,BChE (Equine); 10^-4 M,* 98.96 ± 3.47%
same,BChE (Equine) inhibitory activity (%) ± SD,BChE (Equine); 10^-5 M,90.78±3.92%
same,BChE (Equine) inhibitory activity (%) ± SD,BChE (Equine); 10^-6 M,80.30±2.56%
same,BChE (Equine) inhibitory activity (%) ± SD,BChE (Equine); 10^-7 M,40.34±0.61%
same,BChE (Equine) inhibitory activity (%) ± SD,BChE (Equine); 10^-8 M,30.24±0.70%
same,BChE (Equine) inhibitory activity (%) ± SD,BChE (Equine); 10^-9 M,18.98±0.20%
"O=C(CSC(=S)N1CCN(Cc2ccc(C(F)(F)F)cc2)CC1)Nc1c2ccccc2nc2ccccc12 [Compound 4n, 2-(9-Acridinylamino)-2-oxoethyl 4-(4-(trifluoromethyl)benzyl)piperazine-1-carbodithioate]",IC50,BChE (Human),0.014 ± 0.0005 µM
same,inhibition at 0.001 µM,BChE (Human); [4],37.2 ± 0.69%
same,inhibition at 0.01 µM,BChE (Human); [4],43.6 ± 0.84%
same,inhibition at 0.1 µM,BChE (Human); [4],50.5 ± 0.69%
same,inhibition at 1 µM,BChE (Human); [4],83.2 ± 1.07%
same,inhibition at 10 µM,BChE (Human); [4],93.7 ± 2.45%
same,inhibition at 100 µM,BChE (Human); [4],98.2%
same,inhibition at 1000 µM,BChE (Human); [4],99.3 ± 2.1%
same,IC50,AChE (Human),41.1 ± 1.69 µM
same,inhibition at 0.001 µM,AChE (Human); [5],3 ± 0.12%
same,inhibition at 0.01 µM,AChE (Human); [5],5.51 ± 0.17%
same,inhibition at 0.1 µM,AChE (Human); [5],9.18 ± 0.22%
same,inhibition at 1 µM,AChE (Human); [5],10.5 ± 0.37%
same,inhibition at 10 µM,AChE (Human); [5],18.5 ± 0.54%
same,inhibition at 100 µM,AChE (Human); [5],68.4%
same,inhibition at 1000 µM,AChE (Human); [5],83.3 ± 1.78%
same,IC50,[1],45.9 ± 1.58 µM
same,inhibition at 0.001 µM,[1]; [6],6.91 ± 0.27%
same,inhibition at 0.01 µM,[1]; [6],8.43 ± 0.38%
same,inhibition at 0.1 µM,[1]; [6],11.3 ± 0.61%
same,inhibition at 1 µM,[1]; [6],14.6 ± 0.76%
same,inhibition at 10 µM,[1]; [6],22.4 ± 0.8%
same,inhibition at 100 µM,[1]; [6],63.2%
same,inhibition at 1000 µM,[1]; [6],81 ± 2.65%
same,inhibition type of BChE,"[3]; Lineweaver-Burk plot, inhibitor at IC50/2, IC50, 2 x IC50",mixed inhibition
same,Ki,"[3]; secondary plot of Lineweaver-Burk, substrate BTCI, read-out: steady-state inhibition constant (Ki) against BChE",0.0175 µM
same,IC50 at 24 h,MTT cell viability assay,> 1000 µM
same,IC50,BChE (Equine),0.015 ± 0.0006 µM
same,inhibition at 1000 µM,"BChE (Equine); 10^-3 M, read-out: BChE (Equine) inhibitory activity (%) ± SD",99.5 ± 2.97%
same,inhibition at 100 µM,"BChE (Equine); 10^-4 M, read-out: BChE (Equine) inhibitory activity (%) ± SD",99%
same,inhibition at 10 µM,"BChE (Equine); 10^-5 M, read-out: BChE (Equine) inhibitory activity (%) ± SD",92.5 ± 2.86%
same,inhibition at 1 µM,"BChE (Equine); 10^-6 M, read-out: BChE (Equine) inhibitory activity (%) ± SD",81.3 ± 1.25%
same,inhibition at 0.1 µM,"BChE (Equine); 10^-7 M, read-out: BChE (Equine) inhibitory activity (%) ± SD",49.3 ± 0.58%
same,inhibition at 0.01 µM,"BChE (Equine); 10^-8 M, read-out: BChE (Equine) inhibitory activity (%) ± SD",43.7 ± 1.11%
same,inhibition at 0.001 µM,"BChE (Equine); 10^-9 M, read-out: BChE (Equine) inhibitory activity (%) ± SD",39.25 ± 0.22%
"Cc1ccc(CN2CCN(C(=S)SCC(=O)Nc3c4ccccc4nc4ccccc34)CC2)cc1 [Compound 4o, 2-(9-Acridinylamino)-2-oxoethyl 4-(4-methylbenzyl)piperazine-1-carbodithioate]",BChE (Human) inhibitory activity (%) ± SD,BChE (Human); 10^-3 M,99.25±2.63%
same,BChE (Human) inhibitory activity (%) ± SD,BChE (Human); 10^-4 M,* 75.25 ± 2.08%
same,BChE (Human) inhibitory activity (%) ± SD,BChE (Human); 10^-5 M,48.19±1.12%
same,BChE (Human) inhibitory activity (%) ± SD,BChE (Human); 10^-6 M,41.37±0.95%
same,BChE (Human) inhibitory activity (%) ± SD,BChE (Human); 10^-7 M,37.90±0.71%
same,BChE (Human) inhibitory activity (%) ± SD,BChE (Human); 10^-8 M,24.71±0.55%
same,BChE (Human) inhibitory activity (%) ± SD,BChE (Human); 10^-9 M,20.80±0.48%
same,IC50,BChE (Human); read-out: BChE (Human) IC50,1.07 ± 0.039 µM
same,AChE (Human) inhibitory activity (%) ± SD,AChE (Human); 10^-3 M,90.29±2.18%
same,AChE (Human) inhibitory activity (%) ± SD,AChE (Human); 10^-4 M,30.45 ± 1.15%
same,AChE (Electrophorus electricus) inhibitory activity (%) ± SD,[1]; 10^-3 M,94.97±3.61%
same,AChE (Electrophorus electricus) inhibitory activity (%) ± SD,[1]; 10^-4 M,25.30 ± 1.01%
same,IC50,[2],> 1000 µM
same,IC50,BChE (Equine),1.07 ± 0.051 µM
same,BChE (Equine) inhibitory activity (%) ± SD,BChE (Equine); 10^-3 M,98.64±3.86%
same,BChE (Equine) inhibitory activity (%) ± SD,BChE (Equine); 10^-4 M,* 74.83 ± 2.17%
same,BChE (Equine) inhibitory activity (%) ± SD,BChE (Equine); 10^-5 M,46.33±0.91%
same,BChE (Equine) inhibitory activity (%) ± SD,BChE (Equine); 10^-6 M,42.99±0.97%
same,BChE (Equine) inhibitory activity (%) ± SD,BChE (Equine); 10^-7 M,35.48±0.67%
same,BChE (Equine) inhibitory activity (%) ± SD,BChE (Equine); 10^-8 M,25.36±0.49%
same,BChE (Equine) inhibitory activity (%) ± SD,BChE (Equine); 10^-9 M,16.54±0.56%
